From PubChem BioAssay (NCI)
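Each compound was tested at five concentrations against cells in 96-well plates for 48 hours. TGI marks complete inhibition of growth.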

How the values were obtained:
Experiment in all cases: NCI-60 cell line screen, 48 h
786-0 renal = test system: 786-0 renal
A498 renal = test system: A498 renal
A549 NSCLC = test system: A549 NSCLC
ACHN renal = test system: ACHN renal
BT-549 breast = test system: BT-549 breast
CAKI-1 renal = test system: CAKI-1 renal
CCRF-CEM leukemia = test system: CCRF-CEM leukemia
COLO 205 colon = test system: COLO 205 colon
DU-145 prostate = test system: DU-145 prostate
EKVX NSCLC = test system: EKVX NSCLC
HCC-2998 colon = test system: HCC-2998 colon
HCT-15 colon = test system: HCT-15 colon
HL-60(TB) leukemia = test system: HL-60(TB) leukemia
HOP-62 NSCLC = test system: HOP-62 NSCLC
HOP-92 NSCLC = test system: HOP-92 NSCLC
HS 578T breast = test system: HS 578T breast
HT29 colon = test system: HT29 colon
IGROV1 ovarian = test system: IGROV1 ovarian
K-562 leukemia = test system: K-562 leukemia
KM12 colon = test system: KM12 colon
LOX IMVI melanoma = test system: LOX IMVI melanoma
M14 melanoma = test system: M14 melanoma
MALME-3M melanoma = test system: MALME-3M melanoma
MCF7 breast = test system: MCF7 breast
MDA-MB-231 breast = test system: MDA-MB-231 breast
MDA-MB-435 = test system: MDA-MB-435
MDA-N = test system: MDA-N
MOLT-4 leukemia = test system: MOLT-4 leukemia
NCI-H23 lung = test system: NCI-H23 lung
NCI-H460 lung = test system: NCI-H460 lung
NCI-H522 lung = test system: NCI-H522 lung
NCI/ADR-RES ovarian = test system: NCI/ADR-RES ovarian
OVCAR-3 ovarian = test system: OVCAR-3 ovarian
OVCAR-5 ovarian = test system: OVCAR-5 ovarian
OVCAR-8 ovarian = test system: OVCAR-8 ovarian
PC-3 prostate = test system: PC-3 prostate
RPMI-8226 leukemia = test system: RPMI-8226 leukemia
RXF 393 renal = test system: RXF 393 renal
SF-268 CNS = test system: SF-268 CNS
SF-295 CNS = test system: SF-295 CNS
SF-539 CNS = test system: SF-539 CNS
SK-MEL-2 melanoma = test system: SK-MEL-2 melanoma
SK-MEL-28 melanoma = test system: SK-MEL-28 melanoma
SK-MEL-5 melanoma = test system: SK-MEL-5 melanoma
SK-OV-3 ovarian = test system: SK-OV-3 ovarian
SN12C renal = test system: SN12C renal
SNB-19 CNS = test system: SNB-19 CNS
SNB-75 CNS = test system: SNB-75 CNS
SR leukemia = test system: SR leukemia
SW-620 colon = test system: SW-620 colon
T-47D breast = test system: T-47D breast
TK-10 renal = test system: TK-10 renal
U251 CNS = test system: U251 CNS
UACC-257 melanoma = test system: UACC-257 melanoma
UACC-62 melanoma = test system: UACC-62 melanoma
UO-31 renal = test system: UO-31 renal
HCT-116 colon = test system: HCT-116 colon
NCI-H226 lung = test system: NCI-H226 lung
OVCAR-4 ovarian = test system: OVCAR-4 ovarian

In the case of `COc1ccc2c(c1)CCc1cc(OC)ccc1/[N+]([O-])=[N+]\2[O-]`, the TGI (786-0 renal) is reported as 18.6 µM, the TGI (A498 renal) is reported as 34.2 µM and the TGI (A549 NSCLC) is reported as greater than 67.6 µM. The TGI (ACHN renal) was 26.3 µM, the TGI (BT-549 breast) was 29.8 µM and the TGI (CAKI-1 renal) was 34 µM. It also gave a TGI (CCRF-CEM leukemia) of 5.74 µM, a TGI (COLO 205 colon) of 28.8 µM and a TGI (DU-145 prostate) of 38.1 µM. It also gave a TGI (EKVX NSCLC) of 42.5 µM, a TGI (HCC-2998 colon) of 58.2 µM and a TGI (HCT-15 colon) of 42.9 µM. For the same compound, the TGI (HL-60(TB) leukemia) was 27.6 µM, the TGI (HOP-62 NSCLC) was 52.8 µM and the TGI (HOP-92 NSCLC) was 27.2 µM. It also gave a TGI (HS 578T breast) greater than 59.8 µM, a TGI (HT29 colon) of 45.2 µM and a TGI (IGROV1 ovarian) of 35 µM. It also gave a TGI (K-562 leukemia) greater than 72.1 µM, a TGI (KM12 colon) of 46 µM and a TGI (LOX IMVI melanoma) of 42.7 µM. It also gave a TGI (M14 melanoma) greater than 46.4 µM, a TGI (MALME-3M melanoma) of 38.5 µM and a TGI (MCF7 breast) of 26.7 µM. For the same compound, the TGI (MDA-MB-231 breast) was 37 µM, the TGI (MDA-MB-435) was 32.2 µM and the TGI (MDA-N) was 29.8 µM. It also gave a TGI (MOLT-4 leukemia) of 20.3 µM, a TGI (NCI-H23 lung) of 52.4 µM and a TGI (NCI-H460 lung) of 39.9 µM. For the same compound, the TGI (NCI-H522 lung) was 13.7 µM, the TGI (NCI/ADR-RES ovarian) was greater than 62 µM and the TGI (OVCAR-3 ovarian) was 33.9 µM. For the same compound, the TGI (OVCAR-5 ovarian) was 52.7 µM, the TGI (OVCAR-8 ovarian) was 33 µM and the TGI (PC-3 prostate) was 31.6 µM. The TGI (RPMI-8226 leukemia) was greater than 25.1 µM, the TGI (RXF 393 renal) was 12.2 µM and the TGI (SF-268 CNS) was 32.9 µM. It also gave a TGI (SF-295 CNS) of 37.6 µM, a TGI (SF-539 CNS) of 44 µM and a TGI (SK-MEL-2 melanoma) of 43.8 µM. It also gave a TGI (SK-MEL-28 melanoma) of 34.1 µM, a TGI (SK-MEL-5 melanoma) of 31.6 µM and a TGI (SK-OV-3 ovarian) of 35.6 µM. It also gave a TGI (SN12C renal) of 31.6 µM, a TGI (SNB-19 CNS) of 39 µM and a TGI (SNB-75 CNS) of 33.3 µM. The TGI (SR leukemia) was greater than 42.7 µM, the TGI (SW-620 colon) was 26.1 µM and the TGI (T-47D breast) was 49.1 µM. For the same compound, the TGI (TK-10 renal) was 45 µM, the TGI (U251 CNS) was 38.6 µM and the TGI (UACC-257 melanoma) was 35 µM. For the same compound, the TGI (UACC-62 melanoma) was 30.6 µM and the TGI (UO-31 renal) was 25.9 µM.

With `Cc1ccc(-c2nc(-c3nccc4ccccc34)oc2-c2ccccc2)cc1` the TGI (786-0 renal) was greater than 100 µM, the TGI (A498 renal) was greater than 100 µM and the TGI (A549 NSCLC) was greater than 100 µM. The TGI (ACHN renal) was greater than 100 µM, the TGI (BT-549 breast) was greater than 100 µM and the TGI (CAKI-1 renal) was greater than 100 µM. For the same compound, the TGI (CCRF-CEM leukemia) was greater than 100 µM, the TGI (COLO 205 colon) was greater than 100 µM and the TGI (DU-145 prostate) was greater than 100 µM. It also gave a TGI (EKVX NSCLC) of 64.5 µM, a TGI (HCT-116 colon) greater than 100 µM and a TGI (HCT-15 colon) greater than 100 µM. The TGI (HL-60(TB) leukemia) was greater than 100 µM, the TGI (HOP-62 NSCLC) was greater than 100 µM and the TGI (HOP-92 NSCLC) was greater than 100 µM. The TGI (HS 578T breast) was greater than 100 µM, the TGI (HT29 colon) was greater than 100 µM and the TGI (IGROV1 ovarian) was greater than 100 µM. For the same compound, the TGI (K-562 leukemia) was greater than 100 µM, the TGI (KM12 colon) was greater than 100 µM and the TGI (LOX IMVI melanoma) was 48.2 µM. It also gave a TGI (M14 melanoma) greater than 100 µM, a TGI (MALME-3M melanoma) greater than 100 µM and a TGI (MCF7 breast) greater than 100 µM. For the same compound, the TGI (MDA-MB-231 breast) was greater than 100 µM, the TGI (MDA-MB-435) was greater than 100 µM and the TGI (MDA-N) was greater than 100 µM. It also gave a TGI (MOLT-4 leukemia) greater than 100 µM, a TGI (NCI-H226 lung) greater than 100 µM and a TGI (NCI-H23 lung) greater than 100 µM. The TGI (NCI-H460 lung) was greater than 100 µM, the TGI (NCI-H522 lung) was greater than 100 µM and the TGI (NCI/ADR-RES ovarian) was greater than 100 µM. The TGI (OVCAR-3 ovarian) was greater than 100 µM, the TGI (OVCAR-4 ovarian) was greater than 100 µM and the TGI (OVCAR-5 ovarian) was greater than 100 µM. The TGI (OVCAR-8 ovarian) was greater than 100 µM, the TGI (PC-3 prostate) was greater than 100 µM and the TGI (RPMI-8226 leukemia) was greater than 100 µM. For the same compound, the TGI (RXF 393 renal) was greater than 100 µM, the TGI (SF-268 CNS) was greater than 100 µM and the TGI (SF-295 CNS) was greater than 100 µM. The TGI (SF-539 CNS) was greater than 100 µM, the TGI (SK-MEL-2 melanoma) was greater than 100 µM and the TGI (SK-MEL-28 melanoma) was greater than 100 µM. The TGI (SK-MEL-5 melanoma) was greater than 100 µM, the TGI (SK-OV-3 ovarian) was greater than 100 µM and the TGI (SN12C renal) was 62.7 µM. For the same compound, the TGI (SNB-19 CNS) was greater than 100 µM, the TGI (SNB-75 CNS) was 92.7 µM and the TGI (SR leukemia) was greater than 100 µM. It also gave a TGI (SW-620 colon) greater than 100 µM, a TGI (T-47D breast) greater than 100 µM and a TGI (TK-10 renal) greater than 100 µM. The TGI (U251 CNS) was greater than 100 µM, the TGI (UACC-257 melanoma) was greater than 100 µM and the TGI (UACC-62 melanoma) was greater than 100 µM. It also gave a TGI (UO-31 renal) greater than 100 µM.
